Some test systems named below: DMS 114 small cell lung; XF 498 CNS; M19-MEL melanoma; LXFL 529 NSCLC; SNB-78 CNS; DMS 273 small cell lung; MDA-MB-231 breast; MDA-N.
Holding throughout (test): NCI anticancer screen, dose series, 48 h

Where “and” joins values, the source holds several entries; their conditions need not be identical. Equal entries are not always repeated.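 Test compounds were applied to cells in 96-well plates for 48 hours at 5 doses. GI50 marks 50% less growth. At the TGI there is no net growth.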

`COC1C(OC(=S)Nc2ccccc2)c2ccccc2N1C(C)=O` (stereo not given): the TGI in the assay on DMS 114 small cell lung, in the assay with XF 498 CNS, in the assay on M19-MEL melanoma, in the assay with LXFL 529 NSCLC, in the assay on SNB-78 CNS and in the assay on DMS 273 small cell lung was above 100 µM each time.
With `CNCCOC(=O)/C=C1\CC[C@H]2[C@@H]([C@@H](O)C(=O)[C@@H]3[C@]2(C)CC[C@H](O)[C@]3(C)C(=O)OC)[C@H]1C`, in the assay with MDA-MB-231 breast, the GI50 was 1.77 µM and the TGI was found to be 5.91 µM.
Turning to `CC12CCC(=O)C[C@H]1CCC(OC=O)C2Br` (stereo not given in full), the TGI in the assay on DMS 114 small cell lung, in the assay with XF 498 CNS, with M19-MEL melanoma, in the assay on LXFL 529 NSCLC and with DMS 273 small cell lung was above 100 µM each time.
Regarding `N#Cc1nn(-c2cc(=O)[nH]c3ccc(Cl)cc23)c(N)c1C#N`, in the assay with MDA-MB-231 breast, the GI50 was 89.8 µM and the TGI was above 100 µM.
`COC(=O)c1ccc2c(c1)C(=O)c1c-2n(CCCN=[N+]=[N-])c(=O)c2cc(OC)c(OC)cc12`: in the assay with MDA-MB-231 breast, the GI50 is above 100 µM and the TGI was above 100 µM.
Consider `CCOC(=O)Nc1cc2c(c(N)n1)N=C(c1ccccc1)CO2`, for which, in the assay with MDA-MB-231 breast, the GI50 is 0.691 µM and the TGI is 6.43 µM.
On to `COc1c(O)c2c(=O)cc3c4c5c(cc(=O)c6c(O)c(OC)c(CC(C)O)c(c(c1CC(C)O)c24)c65)OCO3` (stereo not given), for which the TGI with M19-MEL melanoma is 2.08 µM; in the assay with LXFL 529 NSCLC it was 11.4 µM; in the assay on SNB-78 CNS it was 8.04 µM; with DMS 273 small cell lung it was 3.26 µM.
As to `O=c1c(F)cn(Cc2ccc(C34CC5CC(CC(C5)C3)C4)c(O)c2)c(=O)n1Cc1ccc(C23CC4CC(CC(C4)C2)C3)c(O)c1`, in the assay on MDA-MB-231 breast, the GI50 is 12.3 µM and the TGI amounted to 24.8 µM.
Turning to `COc1cc(Cl)cc(-c2nn(-c3cccc(NC(=O)c4ccc(N5CCOCC5)c(C(F)(F)F)c4)c3)cc2-c2ccncc2)c1`, in the assay on MDA-MB-231 breast, the GI50 is 2.83 µM and the TGI came out at 32.4 µM.
`Nc1ncn([C@@H]2O[C@H](CO)[C@@H](O)[C@H]2O)c(=O)n1`: in the assay with MDA-MB-231 breast, the GI50 was 1.61 µM and the TGI was above 100 µM.
For `CC(C)(/C=C(\C#N)C(=O)N1CCC[C@@H](n2nc(-c3ccc(Oc4ccccc4)cc3F)c3c(N)ncnc32)C1)N1CCN(C2COC2)CC1` the same measures were 10.2 µM and 27.7 µM.
Take `CC(C)(C)c1cc(C(P(=O)(O)O)P(=O)(O)O)cc(C(C)(C)C)c1O`: the TGI in the assay on DMS 114 small cell lung, with M19-MEL melanoma, in the assay on LXFL 529 NSCLC, with SNB-78 CNS and in the assay on DMS 273 small cell lung was above 100 µM in each case.
For the compound `CC(=O)Nc1ccc(-c2csc(Nc3cccc(-c4csc(C)n4)c3)n2)cc1`, in the assay with MDA-MB-231 breast, the GI50 was 1.28 µM and the TGI was found to be 5.07 µM.
Regarding `CN(C)CC[C@H](CSc1ccccc1)Nc1ccc(S(=O)(=O)NC(=O)c2ccc(N3CCN(Cc4ccccc4-c4ccc(Cl)cc4)CC3)cc2)cc1[N+](=O)[O-]`, in the assay on MDA-MB-231 breast, the GI50 was 1.55 µM and the TGI was 3.5 µM.
Consider `Clc1cc2c(c(CSc3nc4ccccc4n4cccc34)c1)OCOC2`, for which, in the assay with MDA-MB-231 breast, the GI50 was 12.7 µM and the TGI is above 100 µM.
Regarding `CCN(CC)CCNc1nc(N)c(C#N)c(C#N)c1C#N`, the TGI in the assay on MDA-N and in the assay on MDA-MB-231 breast was above 10 µM throughout.
As to `CCOC(=O)N[C@H]1CCc2cc(OC)c(OC)c(OC)c2-c2ccc(SC)c(=O)cc21`, the TGI in the assay with MDA-N was above 100 µM; in the assay on DMS 114 small cell lung, below 0.0117 µM; in the assay on XF 498 CNS it was 29.8 µM; in the assay with SNB-78 CNS it was above 100 µM; in the assay on DMS 273 small cell lung, above 100 µM.
As to `O=C(Cc1ccc(F)c(Cl)c1)Nc1cc(C2(C(F)(F)F)CC2)nn1CC1CCCCC1`, in the assay on MDA-MB-231 breast, the GI50 is 2.82 µM and the TGI stood at 6.68 µM.
For `COc1ccc2nc3ccccc3c(NCc3ccc(F)cc3)c2c1` the same measures were 1.85 µM and 7.26 µM.
As to `NNC(=O)CNc1cccc(Br)c1`, the TGI in the assay on MDA-N and in the assay with MDA-MB-231 breast was above 100 µM each time.
For the compound `O=C(Nc1cc(C(F)(F)F)cc(C(F)(F)F)c1)c1cc(Cl)ccc1O`, in the assay on MDA-MB-231 breast, the GI50 is 0.241 µM and 0.225 µM; the TGI is > 2.17 µM and 2.63 µM.
In the case of `O=C(/C(=C/c1ccc(Cl)cc1)c1ccccc1)c1ccccc1`, the TGI worked out at 37.2 µM in the assay with DMS 114 small cell lung, 34.5 µM in the assay on XF 498 CNS, 33.7 µM with LXFL 529 NSCLC and 68.7 µM in the assay with SNB-78 CNS.
In the case of `COc1ccc(-c2ccc(=O)oc2C#Cc2cc(OC)c(OC)c(OC)c2)cc1O`, in the assay on MDA-MB-231 breast, the GI50 was 0.905 µM and the TGI amounted to 10.1 µM.
Turning to `CCCC(=O)Nc1cn(COC)c(C(=O)N2C[C@@H]3C[C@]34C2=CC(=O)c2[nH]cc(C)c24)n1`, in the assay with MDA-N, the GI50 was 12.7 µM; the TGI is 19.3 µM and 31.3 µM. In the assay on MDA-MB-231 breast, the GI50 is 19.9 µM; the TGI is 27 µM and 51.1 µM.
Consider `CC(C)C1=Cc2ccc3c(c2C(=O)C1=O)CCCC3(C)C`, for which the TGI came out at 6.99 µM with M19-MEL melanoma, 3.45 µM in the assay on LXFL 529 NSCLC, 16.6 µM in the assay with SNB-78 CNS and 14.8 µM in the assay with DMS 273 small cell lung.
With `COc1ccc(-c2nnc3n(C)c(=O)c4ccccc4n23)cc1N`, in the assay on MDA-MB-231 breast, the GI50 is 3.92 µM and the TGI was above 100 µM.
`COCC(OC)C(CC=C(C#N)C#N)OC` (stereo not given): the TGI with DMS 114 small cell lung, in the assay with XF 498 CNS, in the assay on M19-MEL melanoma, with LXFL 529 NSCLC, in the assay with SNB-78 CNS and in the assay with DMS 273 small cell lung was above 100 µM in each case.
Consider `COc1cc(N=Nc2ccc(O)c3ncccc23)c2ncccc2c1`, for which, in the assay with MDA-MB-231 breast, the GI50 is 3.16 µM and the TGI is above 100 µM.
The matching figures for `CCN1CCN(c2cc(C)c3cc(NC(=O)c4ccc(OC)c(OC)c4)ccc3n2)CC1`: 11.2 µM and above 100 µM.
Take `O=C(Nc1cccc(C(F)(F)F)c1)c1ccc(NC2=C(Cl)C(=O)N(Cc3ccc(Cl)cc3Cl)C2=O)cc1`: in the assay with MDA-MB-231 breast, the GI50 is 12.5 µM and the TGI was 27.6 µM.

The values are drawn from PubChem BioAssay (NCI).
